Four compounds from patent US10934255B2, “Nrf and HIF activators/HDAC inhibitors and therapeutic methods using the same” (THE BOARD OF TRUSTEES OF THE UNIVERSITY OF ILLINOIS, priority 2017, dated 2021) can be followed below.

For one data set, the target named is HDAC2 (Homo sapiens, UniProt Q92769). The experiment in a line: HDAC2 isoform selectivity assay. Type of data set: biochemical. To be noted: Table 2 isoform selectivity; read-out: HDAC Inhibition (IC50 uM) isoform 2. As for the experimental part: (§1) The HDAC1, 2, 4, 5, 6, 7, 8, 9, 10, and 11 assays used isolated recombinant human protein; HDAC3/NcoR2 complex was used for the HDAC3 assay. Substrate for HDAC1, 2, 3, 6, 10, and 11 assays is a fluorogenic peptide from p53 residues 379-382 (RHKKAc); substrate for HDAC8 is fluorogenic diacyl peptide based on residues 379-382 of p53 (RHKAcKAc). Acetyl-Lys(trifluoroacetyl)-AMC substrate was used for HDAC4, 5, 7, and 9 assays. Compounds were dissolved in DMSO and tested in 10-dose IC50 mode with 3-fold serial dilution starting at 30 μM. Control Compound Trichostatin A (TSA) was tested in a 10-dose IC50 with 3-fold serial dilution starting at 5 μM. IC50 values were extracted by curve-fitting the dose/response slopes. Assays were performed in duplicate and IC50 values are an average of data from both experiments.
Chain of HDAC2 (Q92769 whole entry, the tested form may be a part, canonical isoform): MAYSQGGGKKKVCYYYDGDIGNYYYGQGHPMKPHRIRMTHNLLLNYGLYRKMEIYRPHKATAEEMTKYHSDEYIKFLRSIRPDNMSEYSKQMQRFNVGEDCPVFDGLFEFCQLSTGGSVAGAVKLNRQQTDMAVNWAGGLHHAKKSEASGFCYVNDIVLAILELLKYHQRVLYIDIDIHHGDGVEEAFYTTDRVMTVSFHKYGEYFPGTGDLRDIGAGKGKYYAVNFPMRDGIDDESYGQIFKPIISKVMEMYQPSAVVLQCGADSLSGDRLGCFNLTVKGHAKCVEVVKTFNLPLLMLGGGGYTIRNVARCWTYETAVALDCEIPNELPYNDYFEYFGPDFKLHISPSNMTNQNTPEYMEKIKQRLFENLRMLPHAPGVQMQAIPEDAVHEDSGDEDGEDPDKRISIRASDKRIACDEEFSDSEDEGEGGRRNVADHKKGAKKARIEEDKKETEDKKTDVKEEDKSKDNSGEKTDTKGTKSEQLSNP

The next data set deals with HDAC3/NcoR2 complex (Homo sapiens, UniProt O15379). The data set can be described thus: HDAC3 isoform selectivity assay. Type of data set: biochemical. As to conditions: Table 2 isoform selectivity; read-out: HDAC Inhibition (IC50 uM) isoform 3. The method, then:
(§2) The HDAC1, 2, 4, 5, 6, 7, 8, 9, 10, and 11 assays used isolated recombinant human protein; HDAC3/NcoR2 complex was used for the HDAC3 assay. […] Acetyl-Lys(trifluoroacetyl)-AMC substrate was used for HDAC4, 5, 7, and 9 assays. […] IC50 values were extracted by curve-fitting the dose/response slopes. Assays were performed in duplicate and IC50 values are an average of data from both experiments.

Another data set deals with HDAC5 (Homo sapiens, UniProt Q9UQL6). The experiment in a line: HDAC5 isoform selectivity assay. The class given is biochemical. To be noted: Table 2 isoform selectivity; read-out: HDAC Inhibition (IC50 uM) isoform 5. As for the experimental part:
as §1

The next data set deals with T1, HDAC8 (Homo sapiens, UniProt Q9BY41).
T1 sequence (Q9BY41 1-377): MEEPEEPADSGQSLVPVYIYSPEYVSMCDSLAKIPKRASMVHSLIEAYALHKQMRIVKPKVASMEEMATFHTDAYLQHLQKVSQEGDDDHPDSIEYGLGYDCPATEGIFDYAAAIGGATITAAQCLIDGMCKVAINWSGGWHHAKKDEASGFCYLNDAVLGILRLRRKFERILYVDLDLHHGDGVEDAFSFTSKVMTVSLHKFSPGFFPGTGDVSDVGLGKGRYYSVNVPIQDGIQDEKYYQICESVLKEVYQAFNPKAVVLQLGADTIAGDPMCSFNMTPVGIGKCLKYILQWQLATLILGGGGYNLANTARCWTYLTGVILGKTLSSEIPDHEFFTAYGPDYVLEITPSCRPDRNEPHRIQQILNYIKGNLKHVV
The data set can be described thus: HDAC8 isoform selectivity assay. Type of data set: biochemical. To be noted: Table 2 isoform selectivity; read-out: HDAC Inhibition (IC50 uM) isoform 8. The method, then: as §1

The next data set concerns the target HDAC9 (Homo sapiens, UniProt Q9UKV0). The experiment in a line: HDAC9 isoform selectivity assay. Type of data set: biochemical. To be noted: Table 2 isoform selectivity; read-out: HDAC Inhibition (IC50 uM) isoform 9. As for the experimental part:
as §1

A further data set concerns the target T2, HDAC10 (Homo sapiens, UniProt Q969S8).
T2 sequence (Q969S8 1-669): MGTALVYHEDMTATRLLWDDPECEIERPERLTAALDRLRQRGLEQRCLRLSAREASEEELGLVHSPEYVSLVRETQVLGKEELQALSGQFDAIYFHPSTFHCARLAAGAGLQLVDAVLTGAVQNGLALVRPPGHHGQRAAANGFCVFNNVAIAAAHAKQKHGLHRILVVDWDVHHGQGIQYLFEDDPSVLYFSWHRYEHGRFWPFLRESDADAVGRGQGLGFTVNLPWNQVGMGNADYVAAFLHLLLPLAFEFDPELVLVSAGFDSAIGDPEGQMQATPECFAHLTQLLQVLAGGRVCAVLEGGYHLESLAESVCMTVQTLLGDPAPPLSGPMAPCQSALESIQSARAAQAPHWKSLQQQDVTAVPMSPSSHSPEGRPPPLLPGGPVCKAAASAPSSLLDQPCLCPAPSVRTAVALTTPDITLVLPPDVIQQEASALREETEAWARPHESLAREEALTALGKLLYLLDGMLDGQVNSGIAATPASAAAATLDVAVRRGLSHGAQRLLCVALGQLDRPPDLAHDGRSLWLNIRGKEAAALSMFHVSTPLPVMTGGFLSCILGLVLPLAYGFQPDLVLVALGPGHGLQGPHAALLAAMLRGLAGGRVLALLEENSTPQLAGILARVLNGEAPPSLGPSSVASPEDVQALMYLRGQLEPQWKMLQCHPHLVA
The data set can be described thus: HDAC10 isoform selectivity assay. The class given is biochemical. As to conditions: Table 2 isoform selectivity; read-out: HDAC Inhibition (IC50 uM) isoform 10. As for the experimental part: as §1

The target in a further data set is T3, HDAC11 (Homo sapiens, UniProt Q96DB2).
T3 sequence (Q96DB2 1-347): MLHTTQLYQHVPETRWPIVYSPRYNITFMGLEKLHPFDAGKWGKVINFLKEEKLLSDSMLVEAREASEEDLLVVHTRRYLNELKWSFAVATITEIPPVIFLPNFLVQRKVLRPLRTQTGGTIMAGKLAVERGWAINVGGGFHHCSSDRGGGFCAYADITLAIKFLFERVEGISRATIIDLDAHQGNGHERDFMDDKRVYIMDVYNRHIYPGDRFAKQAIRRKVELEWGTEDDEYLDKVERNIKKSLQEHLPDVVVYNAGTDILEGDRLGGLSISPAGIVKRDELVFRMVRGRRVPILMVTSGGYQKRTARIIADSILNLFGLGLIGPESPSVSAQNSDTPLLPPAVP
The experiment in a line: HDAC11 isoform selectivity assay. Type of data set: biochemical. To be noted: Table 2 isoform selectivity; read-out: HDAC Inhibition (IC50 uM) isoform 11. As for the experimental part: as §2

A short description of data set [1]: In vitro metabolic stability in human liver microsomes. The class given is in vitro ADME. To be noted: human liver microsomes after 60 min at 10 uM. For orientation: Liver microsomes are vesicles of endoplasmic reticulum, rich in cytochrome P450 enzymes.

Chain of HDAC5 (Q9UQL6 whole entry, canonical isoform): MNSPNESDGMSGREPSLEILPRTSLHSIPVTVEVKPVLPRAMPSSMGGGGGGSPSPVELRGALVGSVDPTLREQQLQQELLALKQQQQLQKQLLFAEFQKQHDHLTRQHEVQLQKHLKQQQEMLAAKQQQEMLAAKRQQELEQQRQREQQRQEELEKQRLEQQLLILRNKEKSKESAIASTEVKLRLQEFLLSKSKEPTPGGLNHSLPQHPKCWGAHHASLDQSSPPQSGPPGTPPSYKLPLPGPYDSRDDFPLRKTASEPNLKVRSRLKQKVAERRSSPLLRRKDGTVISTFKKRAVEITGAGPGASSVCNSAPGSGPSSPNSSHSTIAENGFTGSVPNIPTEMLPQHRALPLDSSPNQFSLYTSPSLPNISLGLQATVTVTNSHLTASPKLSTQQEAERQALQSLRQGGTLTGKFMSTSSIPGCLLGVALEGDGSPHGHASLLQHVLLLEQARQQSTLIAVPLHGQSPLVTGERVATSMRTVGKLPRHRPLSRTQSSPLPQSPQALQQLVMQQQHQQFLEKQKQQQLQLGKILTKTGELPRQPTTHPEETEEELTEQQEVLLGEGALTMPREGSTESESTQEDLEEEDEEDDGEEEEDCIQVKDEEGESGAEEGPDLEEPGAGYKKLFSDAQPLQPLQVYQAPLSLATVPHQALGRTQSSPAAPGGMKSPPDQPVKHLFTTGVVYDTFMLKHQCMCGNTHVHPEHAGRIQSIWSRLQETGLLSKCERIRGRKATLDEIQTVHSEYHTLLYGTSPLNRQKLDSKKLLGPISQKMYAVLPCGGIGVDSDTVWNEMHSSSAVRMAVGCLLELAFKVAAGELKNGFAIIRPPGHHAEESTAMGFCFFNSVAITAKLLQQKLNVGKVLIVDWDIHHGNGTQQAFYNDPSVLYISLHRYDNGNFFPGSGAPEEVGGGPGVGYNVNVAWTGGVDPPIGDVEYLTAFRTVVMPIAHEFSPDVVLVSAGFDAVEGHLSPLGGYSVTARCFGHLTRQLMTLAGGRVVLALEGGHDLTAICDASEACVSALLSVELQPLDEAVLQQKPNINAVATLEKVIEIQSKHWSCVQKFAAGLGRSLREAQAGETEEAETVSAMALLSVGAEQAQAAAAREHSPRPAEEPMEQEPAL
Chain of HDAC3/NcoR2 complex (O15379 whole entry, canonical isoform): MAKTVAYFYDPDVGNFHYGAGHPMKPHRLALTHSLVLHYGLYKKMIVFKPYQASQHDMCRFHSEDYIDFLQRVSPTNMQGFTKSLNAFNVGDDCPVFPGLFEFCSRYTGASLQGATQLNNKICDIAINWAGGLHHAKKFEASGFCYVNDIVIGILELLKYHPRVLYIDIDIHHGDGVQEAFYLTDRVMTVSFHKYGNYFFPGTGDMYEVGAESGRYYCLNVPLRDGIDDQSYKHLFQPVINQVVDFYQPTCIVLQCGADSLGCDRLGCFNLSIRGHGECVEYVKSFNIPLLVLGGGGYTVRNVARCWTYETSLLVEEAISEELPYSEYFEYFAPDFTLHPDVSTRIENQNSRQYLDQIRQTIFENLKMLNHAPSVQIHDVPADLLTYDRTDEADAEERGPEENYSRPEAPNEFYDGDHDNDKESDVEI
Chain of HDAC3/NcoR2 complex (Q9Y618 395-489 partner limits assumed): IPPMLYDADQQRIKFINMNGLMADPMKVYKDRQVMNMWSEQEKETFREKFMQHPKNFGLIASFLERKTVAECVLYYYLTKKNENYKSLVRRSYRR
Chain of HDAC9 (Q9UKV0 whole entry, canonical isoform): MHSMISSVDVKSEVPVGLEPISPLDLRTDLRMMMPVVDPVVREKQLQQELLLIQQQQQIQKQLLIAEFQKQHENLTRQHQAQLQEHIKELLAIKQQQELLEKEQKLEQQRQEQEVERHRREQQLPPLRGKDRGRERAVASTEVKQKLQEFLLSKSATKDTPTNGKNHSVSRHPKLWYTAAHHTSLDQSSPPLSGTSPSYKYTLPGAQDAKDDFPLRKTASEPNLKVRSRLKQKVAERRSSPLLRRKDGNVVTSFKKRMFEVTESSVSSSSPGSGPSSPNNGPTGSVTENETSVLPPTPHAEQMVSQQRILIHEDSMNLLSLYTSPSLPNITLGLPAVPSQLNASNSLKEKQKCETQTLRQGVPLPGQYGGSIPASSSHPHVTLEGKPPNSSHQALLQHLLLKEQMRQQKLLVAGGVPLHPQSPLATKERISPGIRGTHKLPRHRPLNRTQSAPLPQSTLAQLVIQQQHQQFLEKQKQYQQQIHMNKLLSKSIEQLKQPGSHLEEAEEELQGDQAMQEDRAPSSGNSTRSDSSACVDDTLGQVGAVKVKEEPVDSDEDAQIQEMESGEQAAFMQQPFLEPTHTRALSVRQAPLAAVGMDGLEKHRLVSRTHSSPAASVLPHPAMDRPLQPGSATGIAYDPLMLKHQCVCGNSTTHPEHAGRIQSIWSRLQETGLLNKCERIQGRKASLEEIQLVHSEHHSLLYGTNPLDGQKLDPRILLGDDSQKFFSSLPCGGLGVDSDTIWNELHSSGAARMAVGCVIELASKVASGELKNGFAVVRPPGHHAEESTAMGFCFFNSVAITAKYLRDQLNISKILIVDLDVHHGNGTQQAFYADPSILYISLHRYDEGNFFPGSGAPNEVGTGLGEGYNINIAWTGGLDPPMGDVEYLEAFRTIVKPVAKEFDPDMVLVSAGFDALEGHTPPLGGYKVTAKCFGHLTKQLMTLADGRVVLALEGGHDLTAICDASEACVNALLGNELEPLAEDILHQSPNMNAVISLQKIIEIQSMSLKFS

What is called IC50 is the concentration at which inhibition is half-maximal. For `O=C(NO)c1ccc(CN2CCc3ccc(Cl)cc32)cc1` [II-ING-6, 4-((6-Chloroindolin-1-yl)methyl)-N-hydroxybenzamide], the IC50 on HDAC2 is 6.24 µM; on HDAC3/NcoR2 complex it was 4.34 µM; at HDAC5, 2.7 µM; on HDAC8, 0.53 µM; at HDAC9 it was 2.06 µM; on HDAC10, 6.39 µM. For the same compound, the IC50 at HDAC11 turned out to be 4.52 µM. Also, the “Microsomes stability (% remaining vsT0)” value in data set [1] was determined as 88.6 % remaining vsT0.

Regarding `Cn1c(NCc2ccc(C(=O)NO)cc2)nc2ccccc21` [II-ING-13, N-Hydroxy-4-(((1-methyl-1H-benzo[d]imidazol-2-yl)amino)methyl)benzamide], the IC50 at HDAC2 is 5.2 µM; on HDAC3/NcoR2 complex it was 3.51 µM; at HDAC5, 1.96 µM; on HDAC8 it was 0.17 µM; at HDAC9 it was 1.1 µM; on HDAC10, 5.95 µM. For the same compound, on HDAC11, the IC50 was found to be 2.11 µM.

With `O=C(NO)c1ccc(CN2CCc3cc(Cl)ccc32)cc1` [II-ING-39, 4-((5-Chloroindolin-1-yl)methyl)-N-hydroxybenzamide], the “Microsomes stability (% remaining vsT0)” value in data set [1] came to 81.7 % remaining vsT0.

Regarding `O=C(NO)c1ccc(CN2CCc3ccc(F)cc32)cc1` [II-ING-41, 4-((6-Fluoroindolin-1-yl)methyl)-N-hydroxybenzamide], the IC50 on HDAC2 was 7.15 µM; at HDAC3/NcoR2 complex, 5.43 µM; on HDAC5, 1.39 µM; at HDAC8 it was 0.19 µM; on HDAC9 it was 1 µM; at HDAC10, 6.03 µM. Besides, at HDAC11, the IC50 came to 5.37 µM. The “Microsomes stability (% remaining vsT0)” value in data set [1] was determined as 88.1 % remaining vsT0.
